Assay results published in ChEMBL document CHEMBL1909557, “Oligopeptide cyclophilin inhibitors: a reassessment” (Eur J Med Chem, 2011).
The source made the active and inactive calls. Peptide text beside a SMILES is read from it.

Columns and labels:
[1] = target: Peptidyl-prolyl cis-trans isomerase A (Homo sapiens) (UniProt P62937); test: Binding affinity to human recombinant cyclophilin-A up to 25 uM by isothermal titration calorimetry assay
[2] = target: Peptidyl-prolyl cis-trans isomerase A (Homo sapiens) (UniProt P62937); test: Inhibition of PPIase activity of human recombinant cyclophilin-A using succinyl-Ala-Ala-Pro-Phe-4-nitroanilide as substrate at 100 uM by protease coupled assay
[3] = target: Peptidyl-prolyl cis-trans isomerase A (Homo sapiens) (UniProt P62937); test: Inhibition of PPIase activity of human recombinant cyclophilin-A using succinyl-Ala-Ala-Pro-Phe-4-nitroanilide as substrate at 100 uM pretreated for 3 hrs before substrate addition by spectrophotometry

Sequence of Peptidyl-prolyl cis-trans isomerase A (Homo sapiens) (P62937 whole entry, looked up): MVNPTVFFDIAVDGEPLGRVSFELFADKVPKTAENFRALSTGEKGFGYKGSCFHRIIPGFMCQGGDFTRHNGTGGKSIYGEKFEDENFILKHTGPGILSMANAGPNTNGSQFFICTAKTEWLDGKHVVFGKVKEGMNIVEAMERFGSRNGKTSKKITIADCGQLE

N[C@@H](Cc1c[nH]c2ccccc12)C(=O)NCC(=O)N1CCC[C@H]1C(=O)O (H-Trp-Gly-Pro-OH)
inactive: Activity [1] | inhibition [2] | inhibition [3]
